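Method: 48-hour compound exposure of cells in 96-well plates, five concentrations, linear interpolation of endpoints. GI50: concentration for 50% inhibition of growth.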 Active and inactive are the calls of the source. Rule as the data show it: active = GI50 up to about 1.1 µM and inactive = higher.
Columns and labels:
Assay in all cases: DTP human tumour cell line panel, 48 h
[1] = system: MOLT-4
[2] = system: LOX IMVI
[3] = system: Malme-3M
[4] = system: HCT-116
[5] = system: HCC 2998
[6] = system: UO-31
[7] = system: COLO 205
[8] = system: NCI-H460
[9] = system: OVCAR-4
[10] = system: SF-268
[11] = system: EKVX
[12] = system: RXF 393
[13] = system: UACC-257
[14] = system: SK-MEL-5
[15] = system: NCI-H226
[16] = system: HOP-92

Measured: GI50

COc1ccc2oc3c(OC)c(OC)c(OC)cc3c(=O)c2c1
inactive: [1] > 100 µM | [2] > 100 µM | [3] > 100 µM | [4] > 100 µM | [5] > 100 µM | [6] > 100 µM | [7] > 100 µM | [8] > 100 µM | [9] > 100 µM | [10] > 100 µM | [11] 76 µM | [12] 21.4 µM | [13] > 100 µM | [14] > 100 µM

CCCN(CCC)c1c([N+](=O)[O-])cc(C(=O)N(C)C)cc1[N+](=O)[O-]
inactive: [1] 41 µM | [3] 52.6 µM | [4] 43.4 µM | [5] > 100 µM | [6] 92.9 µM | [7] 76.4 µM | [8] 47.3 µM | [9] 15.5 µM | [10] > 100 µM | [11] 37.8 µM | [13] 35.4 µM | [14] 5.07 µM

C[C@]12CCC(=O)C(O)=C1CC[C@@H]1C2CC[C@]2(C)NC(=O)CCC12 (some centres not stated)
inactive: [15] > 100 µM | [1] > 100 µM | [2] > 100 µM | [3] > 100 µM | [4] > 100 µM | [6] > 100 µM | [7] > 100 µM | [8] > 100 µM | [9] > 100 µM | [10] > 100 µM | [11] > 100 µM | [12] > 100 µM | [13] > 100 µM | [16] > 100 µM | [14] > 100 µM

Cc1cc2c(=O)cc(-c3ccc(Cl)c(Cl)c3)oc2c(C(=O)O)c1C
inactive: [15] > 100 µM | [1] > 100 µM | [2] > 100 µM | [3] > 100 µM | [4] > 100 µM | [6] > 100 µM | [7] > 100 µM | [8] > 100 µM | [9] > 100 µM | [10] > 100 µM | [11] > 100 µM | [12] 76.6 µM | [13] > 100 µM | [14] > 100 µM

CN1C(=O)C(C)(C)NS1(=O)=O
inactive: [1] > 100 µM | [2] > 100 µM | [3] > 100 µM | [4] > 100 µM | [5] > 100 µM | [6] > 100 µM | [7] > 100 µM | [8] > 100 µM | [9] > 100 µM | [10] > 100 µM | [11] > 100 µM | [12] > 100 µM | [13] > 100 µM | [14] > 100 µM

NC(=O)COc1c(Br)cc(Br)cc1Br
inactive: [15] > 100 µM | [1] > 100 µM | [3] > 100 µM | [4] > 100 µM | [5] > 100 µM | [6] > 100 µM | [7] > 100 µM | [8] > 100 µM | [9] 27.7 µM | [10] > 100 µM | [11] > 100 µM | [13] > 100 µM | [14] > 100 µM

c1cncc(C2N3CCCCC3[C@@H]3c4[nH]c5ccccc5c4CCN23)c1 (some centres not stated)
inactive: [1] > 100 µM | [4] > 100 µM | [6] > 100 µM | [8] > 100 µM | [9] > 100 µM | [10] > 100 µM | [11] > 100 µM | [12] 21.1 µM | [13] > 100 µM | [16] > 100 µM | [14] > 100 µM

CCCOc1ccc(/C=C\c2cc(OC)c(OC)c(OC)c2)cc1
inactive: [15] > 100 µM | [2] 27.4 µM | [3] 62.2 µM | [4] 40.5 µM | [6] 33.2 µM | [7] 39.2 µM | [8] 68.2 µM | [9] 30.5 µM | [10] > 100 µM | [11] 87.5 µM | [12] 40.1 µM | [13] 54 µM | [16] 34.7 µM | [14] 13.6 µM

Source: ChEMBL document CHEMBL1201862, “PubChem BioAssay data set” (2004)
